Data as given in paper PMC3113660 (Journal of medicinal chemistry, 2010).
Where a name gives a salt, the structure may show the parent alone.

System: Plasmodium falciparum (K1, resistant to chloroquine)
Assay: In vitro growth inhibition assay of P. falciparum
Assay type: cell-based
Details: for IC50: Plasmodium falciparum, K1, read-out: antiplasmodial IC50, P. falciparum, in vitro

Structure (SMILES) | IC50 | other results
Cl.Cl.Oc1ccc(C2=NCCN2)cc1-c1cn(-c2cccc(C3=NCCN3)c2)nn1 [Compound 15, 4-[5-(4,5-Dihydro-1H-imidazol-2-yl)-2-hydroxyphenyl]-1-[3-(4,5-dihydro-1H-imidazol-2-yl)phenyl]-1H-1,2,3-triazole Dihydrochloride] | < 58 nM | fold more active against P. falciparum (relative to diimidazoline 3): 7 fold
c1cc(-c2cn(-c3ccc(C4=NCCN4)cc3)nn2)ccc1C1=NCCN1 [Compound 48, 1,4-Bis(4-(4,5-dihydro-1H-imidazol-2-yl)phenyl)-1H-1,2,3-triazole Dihydrochloride] | < 58 nM | –
COc1cc(C2=NCCN2)ccc1-n1cc(-c2ccc(C3=NCCN3)cc2)nn1 [Compound 51, 1-[4-(4,5-Dihydro-1H-imidazol-2-yl)-2-methoxyphenyl]-4-[4-(4,5-dihydro-1H-imidazol-2-yl)phenyl]-1H-1,2,3-triazole Dihydrochloride] | < 58 nM | –
COc1cc(C(=N)N)ccc1-n1cc(-c2ccc(C(=N)N)cc2)nn1 [Compound 49, 1-(4-Amidino-2-methoxyphenyl)-4-(4-amidinophenyl)-1H-1,2,3-triazole Dihydrochloride] | < 58 nM | –
CC(C)NC(=N)c1cccc(-c2cn(-c3cc(C(=N)NC(C)C)ccc3O)nn2)c1.Cl.Cl [Compound 11, 1-(5-N-Isopropylamidino-2-hydroxyphenyl)-4-(3-N-isopropylamidinophenyl)-1H-1,2,3-triazole Dihydrochloride] | – | fold lower antiplasmodial activity (relative to congener 2): 7 fold; fold lower antiplasmodial activity (relative to congener 5): 6 fold
Oc1cc(C2=NCCN2)ccc1-c1cn(-c2cccc(C3=NCCN3)c2)nn1 [Compound 45, 4-[4-(4,5-Dihydro-1H-imidazol-2-yl)-2-hydroxyphenyl]-1-[3-(4,5-dihydro-1H-imidazol-2-yl)phenyl]-1H-1,2,3-triazole Dihydrochloride] | < 58 nM | –
Cl.Cl.N=C(N)c1ccc(-c2cn(-c3cc(C(=N)N)ccc3O)nn2)cc1 [Compound 40, 1-(5-Amidino-2-hydroxyphenyl)-4-(4-amidinophenyl)-1H-1,2,3-triazole Dihydrochloride] | – | fold less active against P. falciparum (relative to congener 31): 308 fold
COc1cc(C(=N)NC(C)C)ccc1-n1cc(-c2ccc(C(=N)NC(C)C)cc2)nn1 [Compound 50, 1-(4-N-Isopropylamidino-2-methoxyphenyl)-4-(4-N-isopropylamidinophenyl)-1H-1,2,3-triazole Dihydrochloride] | < 58 nM | –
CC(C)NC(=N)c1ccc(-n2cc(-c3ccc(C(=N)NC(C)C)cc3O)nn2)cc1.Cl.Cl [Compound 59, 4-(4-N-Isopropylamidino-2-hydroxyphenyl)-1-(4-N-isopropylamidinophenyl)-1H-1,2,3-triazole Dihydrochloride] | < 58 nM | –
COc1cc(C2=NCCN2)ccc1-c1cn(-c2ccc(C3=NCCN3)cc2)nn1 [Compound 54, 4-[4-(4,5-Dihydro-1H-imidazol-2-yl)-2-methoxyphenyl]-1-[4-(4,5-dihydro-1H-imidazol-2-yl)phenyl]-1H-1,2,3-triazole Dihydrochloride] | < 58 nM | –
COc1ccc(C(=N)NC(C)C)cc1-n1cc(-c2ccc(C(=N)NC(C)C)cc2)nn1.Cl.Cl [Compound 35, 1-(5-N-Isopropylamidino-2-methoxyphenyl)-4-(4-N-isopropylamidinophenyl)-1H-1,2,3-triazole Dihydrochloride] | – | fold less active against P. falciparum (relative to bis(N-isopropyl)amidine 32): 5 fold
COc1ccc(C(=N)N)cc1-n1cc(-c2ccc(C(=N)N)cc2)nn1.Cl.Cl [Compound 34, 1-(5-Amidino-2-methoxyphenyl)-4-(4-amidinophenyl)-1H-1,2,3-triazole Dihydrochloride] | < 58 nM | fold less active against P. falciparum (relative to congener 31): 4 fold
COc1cc(C(=N)NC(C)C)ccc1-c1cn(-c2ccc(C(=N)NC(C)C)cc2)nn1 [Compound 53, 4-(4-N-Isopropylamidino-2-methoxyphenyl)-1-(4-N-isopropylamidinophenyl)-1H-1,2,3-triazole Dihydrochloride] | < 58 nM | –
